Measured values taken from patent US20040033899A1, “5[(pyrazol-4-yl)carbonyl]benzazolone as herbicide” (priority 2000, published 2004).

Key:
[1] = test system: AMARE; assay: greenhouse post-emergence herbicidal test; assay type: in vivo, redroot pigweed
From the text: (§1) The seeds of the test plants were sown separately for each species. For the post-emergence treatment, the test plants were first grown to a plant height of from 3 to 15 cm, depending on the plant habit, and only then treated with the active compounds which had been suspended or emulsified in water. To this end, the test plants were either sown directly and grown in the same containers, or they were first grown separately as seedlings and transplanted into the test containers a few days prior to treatment. The rate of application for the post-emergence treatment was 31.3, 62.5, 125 and/or 250 g of a.s. (active substance) /ha. Depending on the species, the plants were kept at from 10 to 25° C., or 20-35° C., respectively. The test period extended over 2 to 4 weeks. During this time, the plants were tended, and their response to the individual treatments was evaluated. Evaluation was carried out using a scale of from 0 to 100. 100 means no emergence of the plants, or complete destruction of at least the aerial parts, and 0 means no damage, or normal course of growth. A damage of at least 95% corresponds to very good herbicidal action. The plants used in the greenhouse experiments were of the following species: [table]

[2] = test system: BRAPL; assay: greenhouse post-emergence herbicidal test; assay type: in vivo, marmelade grass
From the text: as §1

[3] = test system: BIDPI; assay: greenhouse post-emergence herbicidal test; assay type: in vivo, hairy beggarticks; conditions: 125 or 250 g/ha (a.s.)
From the text: as §1

[4] = test system: POLPE; assay: greenhouse post-emergence herbicidal test; assay type: in vivo, ladysthumb
From the text: as §1

[5] = test system: STEME; assay: greenhouse post-emergence herbicidal test; assay type: in vivo, chickweed; conditions: 31.3 or 62.5 g/ha (a.s.)
From the text: as §1

[6] = test system: THLAR; assay: greenhouse post-emergence herbicidal test; assay type: in vivo, pennycress; conditions: 31.3 or 62.5 g/ha (a.s.)
From the text: as §1

[7] = test system: PAPRH; assay: greenhouse post-emergence herbicidal test; assay type: in vivo, cornpoppy; conditions: 31.3 or 62.5 g/ha (a.s.)
From the text: as §1

[8] = test system: ECHCG; assay: greenhouse post-emergence herbicidal test; assay type: in vivo, barnyardgrass; conditions: 125 or 250 g/ha (a.s.)
From the text: as §1

[9] = test system: CHEAL; assay: greenhouse post-emergence herbicidal test; assay type: in vivo, lambsquarters (goosefoot); conditions: 125 or 250 g/ha (a.s.)
From the text: as §1

[10] = test system: SETFA; assay: greenhouse post-emergence herbicidal test; assay type: in vivo, giant foxtail; conditions: 125 or 250 g/ha (a.s.)
From the text: as §1

[11] = test system: PHBPU; assay: greenhouse post-emergence herbicidal test; assay type: in vivo, morningglory, common; conditions: 125 or 250 g/ha (a.s.)
From the text: as §1

C=CCn1c(=O)sc2ccc(C(=O)c3cnn(C)c3O)c(C)c21 [Example 4]
melting point: 155 to 158 °C

Cc1c(C(=O)c2cnn(C)c2O)ccc2oc(=O)n(C)c12 [Example 6]
melting point: 200 to 203 °C

C=CCn1c(=O)oc2ccc(C(=O)c3cnn(C)c3O)c(C)c21 [Example 7]
melting point: 127 to 129 °C

CCn1c(=O)oc2ccc(C(=O)c3cnn(C)c3O)c(C)c21 [Example 8]
melting point: 156 to 157 °C

CCCn1c(=O)sc2ccc(C(=O)c3cnn(C)c3O)c(C)c21 [Example 15]
melting point: 135 to 137 °C

Cc1c(C(=O)c2cnn(C)c2O)ccc2sc(=O)n(Cc3ccccc3)c12 [Example 16]
melting point: 65 to 71 °C

Cc1c(C(=O)c2cnn(C(C)C)c2O)ccc2sc(=O)n(Cc3ccccc3)c12 [Example 17]
melting point: 142 to 144 °C

Cc1nn(C)c(O)c1C(=O)c1ccc2sc(=O)n(Cc3ccccc3)c2c1C [Example 18]
melting point: 153 to 156 °C

CC#CCn1c(=O)sc2ccc(C(=O)c3cnn(C)c3O)c(C)c21 [Example 20]
melting point: 140 to 147 °C

CC#CCn1c(=O)sc2ccc(C(=O)c3cnn(C(C)C)c3O)c(C)c21 [Example 21]
melting point: 54 to 60 °C

Cc1c(C(=O)c2cnn(C(C)C)c2O)ccc2sc(=O)n(CC3OCCO3)c12 [Example 23]
melting point: 54 to 58 °C

Cc1c(C(=O)c2cnn(C(C)C)c2OCc2ccccc2)ccc2sc(=O)n(CC3OCCO3)c12 [Example 24]
melting point: 133 to 134 °C

Cc1c(C(=O)c2cnn(C)c2O)ccc2oc(=O)n(CC(C)C)c12 [Example 26]
melting point: 150 to 151 °C

CCCn1c(=O)oc2ccc(C(=O)c3cnn(C(C)C)c3O)c(C)c21 [Example 27]
melting point: 104 to 105 °C

CCCn1c(=O)sc2ccc(C(=O)c3c(C)nn(C)c3O)c(C)c21 [Example 28]
melting point: 56 to 61 °C

Cc1c(C(=O)c2cnn(C)c2OCc2ccccc2)ccc2sc(=O)n(Cc3ccccc3)c12 [Example 35]
melting point: 150 to 151 °C

CCCCCn1c(=O)sc2ccc(C(=O)c3cnn(C(C)C)c3O)c(C)c21 [Example 39]
melting point: 105 to 107 °C

COc1cccc(Cn2c(=O)sc3ccc(C(=O)c4cnn(C(C)C)c4O)c(C)c32)c1 [Example 44]
melting point: 71 to 74 °C

COc1cccc(Cn2c(=O)sc3ccc(C(=O)c4cnn(C)c4O)c(C)c32)c1 [Example 45]
melting point: 79 to 89 °C

CCCn1c(=O)oc2ccc(C(=O)c3cnn(C)c3O)c(C)c21 [Example I-1a.4]
herbicidal action against AMARE ([1]; 125 or 62.5 g/ha (a.s.)): very good herbicidal action (A damage of at least 95% corresponds to very good herbicidal action) | herbicidal action against BRAPL ([2]; 125 or 62.5 g/ha (a.s.)): very good herbicidal action (A damage of at least 95% corresponds to very good herbicidal action)

CCCCn1c(=O)oc2ccc(C(=O)c3cnn(C)c3O)c(C)c21 [Example I-1a.6]
herbicidal action against BIDPI [3]: very good herbicidal action (A damage of at least 95% corresponds to very good herbicidal action) | herbicidal action against POLPE ([4]; 125 or 250 g/ha (a.s.)): very good herbicidal action (A damage of at least 95% corresponds to very good herbicidal action)

Cc1c(C(=O)c2cnn(C)c2O)ccc2sc(=O)n(C)c12 [Example I-1a.1129, 3,4-dimethyl-5-(5′-hydroxy-1′-methyl-pyrazol-4-yl)carbonyl benzothiazol-2-one]
herbicidal action against STEME [5]: very good herbicidal action (A damage of at least 95% corresponds to very good herbicidal action) | herbicidal action against THLAR [6]: very good herbicidal action (A damage of at least 95% corresponds to very good herbicidal action)

CCn1c(=O)sc2ccc(C(=O)c3cnn(C)c3O)c(C)c21 [Example I-1a.1131]
herbicidal action against AMARE ([1]; 125 or 250 g/ha (a.s.)): very good herbicidal action (A damage of at least 95% corresponds to very good herbicidal action) | herbicidal action against BRAPL ([2]; 125 or 250 g/ha (a.s.)): very good herbicidal action (A damage of at least 95% corresponds to very good herbicidal action)

CCn1ncc(C(=O)c2ccc3sc(=O)n(C)c3c2C)c1O [Example I-1b.1129, 3,4-dimethyl-5-(5′-hydroxy-1′-ethylpyrazol-4-yl)carbonylbenzothiazol-2-one]
herbicidal action against PARPH [7]: very good herbicidal action (A damage of at least 95% corresponds to very good herbicidal action) | herbicidal action against STEME [5]: very good herbicidal action (A damage of at least 95% corresponds to very good herbicidal action) | herbicidal action against THLAR [6]: very good herbicidal action (A damage of at least 95% corresponds to very good herbicidal action)

CCn1ncc(C(=O)c2ccc3sc(=O)n(CC)c3c2C)c1O [Example I-1b.1131]
herbicidal action against AMARE ([1]; 125 or 250 g/ha (a.s.)): very good herbicidal action (A damage of at least 95% corresponds to very good herbicidal action) | herbicidal action against BRAPL ([2]; 125 or 250 g/ha (a.s.)): very good herbicidal action (A damage of at least 95% corresponds to very good herbicidal action)

Cc1c(C(=O)c2cnn(C(C)C)c2O)ccc2sc(=O)n(C)c12 [Example I-1c.1129, 3,4-dimethyl-5-(5′-hydroxy-1′-isopropylpyrazol-4-yl)carbonylbenzothiazol-2-one]
herbicidal action against AMARE ([1]; 31.3 or 62.5 g/ha (a.s.)): very good herbicidal action (A damage of at least 95% corresponds to very good herbicidal action) | herbicidal action against POLPE ([4]; 31.3 or 62.5 g/ha (a.s.)): very good herbicidal action (A damage of at least 95% corresponds to very good herbicidal action)

CCn1c(=O)sc2ccc(C(=O)c3cnn(C(C)C)c3O)c(C)c21 [Example I-1c.1131]
herbicidal action against AMARE ([1]; 125 or 250 g/ha (a.s.)): very good herbicidal action (A damage of at least 95% corresponds to very good herbicidal action) | herbicidal action against BRAPL ([2]; 125 or 250 g/ha (a.s.)): very good herbicidal action (A damage of at least 95% corresponds to very good herbicidal action)

CCn1c(=O)sc2ccc(C(=O)c3cnn(C(C)(C)C)c3O)c(C)c21 [Example I-1d.1131]
herbicidal action against AMARE ([1]; 125 or 250 g/ha (a.s.)): very good herbicidal action (A damage of at least 95% corresponds to very good herbicidal action) | herbicidal action against BRAPL ([2]; 125 or 250 g/ha (a.s.)): very good herbicidal action (A damage of at least 95% corresponds to very good herbicidal action)

CCn1c(=O)sc2ccc(C(=O)c3cnn(C)c3OCc3ccccc3)c(C)c21 [Example I-1g.1131]
herbicidal action against AMARE ([1]; 125 or 250 g/ha (a.s.)): very good-herbicidal action | herbicidal action against BRAPL ([2]; 125 or 250 g/ha (a.s.)): very good-herbicidal action | herbicidal action against ECHCG [8]: very good-herbicidal action | herbicidal action against CHEAL [9]: very good-herbicidal action | herbicidal action against SETFA [10]: very good-herbicidal action

CCn1ncc(C(=O)c2ccc3sc(=O)n(CC)c3c2C)c1OCc1ccccc1 [Example I-1h.1131]
herbicidal action against AMARE ([1]; 125 or 250 g/ha (a.s.)): very good herbicidal action (A damage of at least 95% corresponds to very good herbicidal action) | herbicidal action against BRAPL ([2]; 125 or 250 g/ha (a.s.)): very good herbicidal action (A damage of at least 95% corresponds to very good herbicidal action)

CCn1c(=O)sc2ccc(C(=O)c3cnn(C(C)(C)C)c3OCc3ccccc3)c(C)c21 [Example I-1y.1131]
herbicidal action against BRAPL ([2]; 125 or 250 g/ha (a.s.)): very good herbicidal action (A damage of at least 95% corresponds to very good herbicidal action) | herbicidal action against PHBPU [11]: very good herbicidal action (A damage of at least 95% corresponds to very good herbicidal action)
